# From US20230219995A1, “FLUORESCENT CYTOSINE ANALOGUES AND THEIR APPLICATION IN TRANSCRIPTION AND TRANSLATION” (STEALTH LABELS BIOTECH AB, priority 2020, published 2023)
# Legend:
# SP6 RNA polymerase = target: T1, SP6 RNA polymerase (Enterobacteria phage SP6, UniProt P06221); test: Cell-free in vitro transcription with SP6 RNA polymerase (tC^O TP/CTP ratios 0-100%); type: biochemical, bacteriophage; settings: tC^O TP/canonical CTP ratios 0 to 100%, agarose bleach gel
# T1 construct: purchased Thermo Scientific
# T1 sequence (P06221 1-874): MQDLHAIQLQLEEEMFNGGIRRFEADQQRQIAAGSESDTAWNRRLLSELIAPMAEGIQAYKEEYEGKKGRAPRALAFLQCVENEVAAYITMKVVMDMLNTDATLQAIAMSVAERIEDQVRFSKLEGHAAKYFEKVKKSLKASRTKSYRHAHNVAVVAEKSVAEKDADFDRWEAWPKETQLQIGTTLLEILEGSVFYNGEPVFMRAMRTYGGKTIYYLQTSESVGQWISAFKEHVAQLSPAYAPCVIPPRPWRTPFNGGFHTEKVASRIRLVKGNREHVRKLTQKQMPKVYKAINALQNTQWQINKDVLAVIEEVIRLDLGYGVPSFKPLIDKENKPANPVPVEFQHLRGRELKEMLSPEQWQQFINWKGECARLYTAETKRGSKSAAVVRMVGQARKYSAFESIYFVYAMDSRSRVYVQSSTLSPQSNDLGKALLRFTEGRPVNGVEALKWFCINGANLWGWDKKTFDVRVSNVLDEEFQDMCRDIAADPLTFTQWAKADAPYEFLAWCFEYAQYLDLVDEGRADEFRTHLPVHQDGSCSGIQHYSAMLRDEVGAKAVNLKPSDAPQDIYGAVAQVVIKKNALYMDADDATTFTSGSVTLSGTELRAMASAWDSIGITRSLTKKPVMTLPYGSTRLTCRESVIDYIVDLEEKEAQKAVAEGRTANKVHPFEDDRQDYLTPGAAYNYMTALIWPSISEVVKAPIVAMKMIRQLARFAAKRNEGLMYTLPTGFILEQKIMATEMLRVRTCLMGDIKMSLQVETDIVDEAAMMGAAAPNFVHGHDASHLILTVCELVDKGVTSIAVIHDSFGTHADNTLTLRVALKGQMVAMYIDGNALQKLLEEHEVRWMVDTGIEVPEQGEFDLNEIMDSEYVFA
# T7 RNA polymerase = target: T2, T7 RNA polymerase (Escherichia phage T7, UniProt P00573); test: Cell-free in vitro transcription with T7 RNA polymerase (tC^O TP/CTP ratios 0-100%); type: biochemical, bacteriophage
# T2 construct: purchased Thermo Scientific
# T2 sequence (P00573 whole entry): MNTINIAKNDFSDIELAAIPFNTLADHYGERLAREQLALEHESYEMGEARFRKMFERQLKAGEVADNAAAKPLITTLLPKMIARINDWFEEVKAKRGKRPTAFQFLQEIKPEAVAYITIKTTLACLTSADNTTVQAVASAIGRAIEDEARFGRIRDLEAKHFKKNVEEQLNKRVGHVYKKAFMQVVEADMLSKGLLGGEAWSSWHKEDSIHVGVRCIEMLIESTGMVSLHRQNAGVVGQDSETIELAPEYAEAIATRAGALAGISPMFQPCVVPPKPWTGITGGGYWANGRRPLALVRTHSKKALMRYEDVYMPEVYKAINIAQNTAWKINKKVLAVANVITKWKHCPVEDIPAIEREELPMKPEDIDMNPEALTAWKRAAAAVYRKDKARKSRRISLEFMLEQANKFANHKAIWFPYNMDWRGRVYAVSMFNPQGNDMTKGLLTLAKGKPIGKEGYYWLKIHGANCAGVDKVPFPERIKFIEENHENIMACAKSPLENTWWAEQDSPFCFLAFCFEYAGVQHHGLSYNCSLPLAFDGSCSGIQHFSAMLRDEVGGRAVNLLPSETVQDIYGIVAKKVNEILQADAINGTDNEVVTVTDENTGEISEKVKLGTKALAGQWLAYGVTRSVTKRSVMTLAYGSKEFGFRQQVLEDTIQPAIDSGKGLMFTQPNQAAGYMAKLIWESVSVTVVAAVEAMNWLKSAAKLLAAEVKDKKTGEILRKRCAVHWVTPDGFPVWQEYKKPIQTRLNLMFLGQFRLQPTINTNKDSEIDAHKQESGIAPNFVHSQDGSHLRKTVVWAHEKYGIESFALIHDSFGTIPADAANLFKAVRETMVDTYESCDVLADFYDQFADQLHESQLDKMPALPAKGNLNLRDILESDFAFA
# [1] = Steady state absorption, emission and fluorescence quantum yield of tC^O-modified RNA transcripts; type: physicochemical; settings: free triphosphate
# Protocol: A spectroscopic approach was used to quantify the incorporation efficiency of tC^O TP, compared to the canonical CTP. To enable this, all RNA transcripts were purified using a Monarch RNA Cleanup kit, ensuring complete removal of unreacted tC^O TP.
# The tC^O-RNA products from the cell-free transcription reactions (prior to polyadenylation and capping, see Methods: Bio for details) were measured as received, i.e. in RNAse free Milli Q water. All measurements were carried out at room temperature (ca. 22° C.) in a 3.0 mm path length quartz cuvette, with a sample volume of ca. 60 μL.
# Absorption spectra were recorded on a Cary 5000 (Varian Technologies) spectrophotometer with a wavelength interval of 1.0 nm, integration time of 0.1 s, and a spectral band width (SBW) of 1 nm. All spectra were baseline corrected by subtracting the corresponding absorption from the solvent only. A second-order polynomial Savitzky-Golay (five points) smoothing filter was applied to all spectra. […]
# Emission spectra were recorded on a SPEX Fluorolog (Jobin Yvon Horiba) fluorimeter with excitation at 356 nm. […]
# Sample fluorescence quantum yields (ΦF) were determined relative to a solution of quinine sulphate (Sigma) in 0.5 M H2SO4 (ΦF,REF=0.546) and calculated according to equation S2. […]
substance,measurement,setting,value
"((2R,3S,4R,5R)-3,4-dihydroxy-5-(2-oxo-2,10-dihydro-3H-benzo[b]pyrimido[4,5-e][1,4]oxazin-3-yl)tetrahydrofuran-2-yl)methyl triphosphate [tC^O TP]",transcription and tC^O incorporation into full-length H2B:GFP mRNA,SP6 RNA polymerase,Efficient transcription and tC^O incorporation
same,"kC/ktC^O, ratio of first-order rate constants for incorporation of CTP vs. tC^O TP",T7 RNA polymerase; calculated from absorption at 260 nm and 370 nm of purified transcripts,0.96-1.4
same,transcription and tC^O incorporation into full-length H2B:GFP mRNA,"T7 RNA polymerase; tC^O TP/canonical CTP ratios 0 to 100%, agarose bleach gel",Efficient transcription and tC^O incorporation
same,tC^O-band absorption λmax,[1],360 nm
